This test addresses T1, HA-S170A CaSR mutant (ATD mutant) (Rattus norvegicus, UniProt P48442, S170A).
T1 construct: mGluR5 signal peptide (N); expressed in transfected cells; host or cells: HEK293T
T1 sequence (P48442 20-1079 S170A): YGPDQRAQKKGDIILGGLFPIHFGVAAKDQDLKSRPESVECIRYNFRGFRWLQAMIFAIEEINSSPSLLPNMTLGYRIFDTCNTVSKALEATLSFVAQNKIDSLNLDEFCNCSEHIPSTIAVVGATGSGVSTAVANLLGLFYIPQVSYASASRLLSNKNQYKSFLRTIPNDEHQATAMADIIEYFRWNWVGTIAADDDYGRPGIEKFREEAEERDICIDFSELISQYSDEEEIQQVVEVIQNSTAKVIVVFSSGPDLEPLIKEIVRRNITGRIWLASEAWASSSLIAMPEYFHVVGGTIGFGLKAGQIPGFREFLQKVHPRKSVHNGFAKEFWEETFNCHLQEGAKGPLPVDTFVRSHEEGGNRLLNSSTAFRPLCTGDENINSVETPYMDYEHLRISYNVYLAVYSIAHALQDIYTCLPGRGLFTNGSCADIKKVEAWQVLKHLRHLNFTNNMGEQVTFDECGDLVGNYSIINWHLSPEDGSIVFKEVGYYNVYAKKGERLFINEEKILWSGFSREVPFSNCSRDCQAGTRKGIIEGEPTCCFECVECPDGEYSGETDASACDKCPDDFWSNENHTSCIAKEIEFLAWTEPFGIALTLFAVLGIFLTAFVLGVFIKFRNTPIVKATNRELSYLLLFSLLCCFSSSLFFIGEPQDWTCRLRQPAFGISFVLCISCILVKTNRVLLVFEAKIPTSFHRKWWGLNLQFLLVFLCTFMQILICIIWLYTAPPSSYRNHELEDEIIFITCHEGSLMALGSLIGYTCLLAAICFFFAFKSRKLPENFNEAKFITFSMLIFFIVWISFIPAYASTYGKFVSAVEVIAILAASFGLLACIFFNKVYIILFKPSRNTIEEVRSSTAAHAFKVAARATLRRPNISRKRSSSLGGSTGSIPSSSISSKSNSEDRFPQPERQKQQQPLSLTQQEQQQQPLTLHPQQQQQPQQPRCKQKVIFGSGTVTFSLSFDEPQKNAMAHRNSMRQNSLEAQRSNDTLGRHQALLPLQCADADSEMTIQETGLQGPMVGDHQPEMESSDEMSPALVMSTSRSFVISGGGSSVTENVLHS
Briefly: IP-One assay, HEK293T transiently transfected. In kind it is cell-based. How it is done:
Human embryonic kidney (HEK) 293T cells were cultured in DMEM supplemented with 10% dFBS and 1% P/S at 37 °C and 5% CO2. 48 h prior to assay, transient transfection was performed using Lipofectamine 2000 as the transfection reagent. White opaque 96-well culture plates (PerkinElmer, Waltham, MA, USA) were used for the ELISA and the TR-FRET dimerization assay, while clear tissue culture treated 96-well plates (Corning, Corning, NY, USA) were used for the IP-One assay. Both plate types were coated with poly-D-lysine before addition of cells and transfection mix. 0.25 μl/well of Lipofectamine 2000 were diluted in 25 μl/well of Opti-MEM and incubated at room temperature (RT) for 5 min. 0.03 μg/well of DNA was diluted in 25 μl/well of Opti-MEM, and subsequently mixed with the Lipofectamine 2000 dilution and incubated 20 min at RT before addition to the plates. Cell suspensions of 170.000 HEK293T cells/mL were prepared in complete growth medium and 100 μl/well (17.000 cells/well) was added to the plates, which were incubated for 48 h at 37 °C and 5% CO2 before performing assays.
Functional activity was measured using the IP-One assay, which is an IP1 accumulation assay. For agonist testing, ligands were prepared in final concentrations in ligand buffer (HBSS, 20 mM HEPES, pH 7.4 supplemented with 20 mM LiCl). Cells were washed once with 100 μl/well of assay buffer (HBSS, 20 mM HEPES, pH 7.4) and 50 μl/well of agonist solution was added after which plates were incubated at 37 °C for 30 min. Subsequently, ligand solutions were removed and cells were washed with 100 μl/well of assay buffer. Cell lysis was performed by addition of 30 μl/well of IP-One Conjugate & Lysis Buffer (Cisbio Bioassays, Codolet, France) and plates were incubated at RT for 30 min. Afterwards, 30 μl/well of assay buffer was added to dilute the cell lysate. 10 μl/well of cell lysate was transferred from the 96-well plate to a 384-well Optiplate and 10 μl/well of detection solution (Assay buffer + 2.5% of anti-IP1 antibody cryptate Terbium conjugate + 2.5% IP1-d2 conjugate (Cisbio Bioassays, Codolet, France)) was also added. The 384-well plate was incubated for 1 h at RT in dark before being measured on an EnVision plate reader (PerkinElmer, Waltham, MA, USA). Upon excitation at 340 nm, emission at 615 nm and 665 nm was measured, and the FRET ratio (665 nm/615 nm) was converted to IP1 concentrations by interpolating values from an IP1 standard curve generated from a provided IP1 calibrator (Cisbio Bioassays, Codolet, France). When testing allosteric modulators, cells were pre-incubated for 30 min at 37 °C with 50 μl/well of ligand buffer supplemented with allosteric modulator and a final concentration of 1% DMSO. Afterwards, the buffer solution was removed and 50 μl/well of agonist solution in ligand buffer supplemented with allosteric modulator and a final concentration of 1% DMSO was added. Plates were incubated for 30 min at 37 °C followed by one wash in 100 μl/well of assay buffer. Cell lysis and detection was performed as described above.

Several values for one entry are separate records, joined by “and”; a condition that tells them apart may be missing. Equal entries are not always repeated.

As to `[Ca+2]` [Ca^2+], the concentration giving a half-maximal response (EC50) (as a rule, the midpoint of the concentration-response curve) (HA-S170A, Ca^2+ alone) is > 45 mM. Moreover, under “HA-S170A, normalized to maximum response of WT CaSR, at highest tested Ca^2+ concentration”, the “Max ± S.E.M.” value is 17% and 17 ± 0.7%.
For `COc1cccc([C@@H](C)NCCCc2ccccc2Cl)c1.Cl` [NPS R-568, NPS R-568 hydrochloride], the “potentiation of Ca^2+-mediated response” value (S170A co-expressed with pEGFPN1, 23 mM Ca^2+, 0.05, 0.1 and 1 μM NPS R-568) is “concentration-dependent potentiation”.

These data come from article PMC5394417, “Investigating the molecular mechanism of positive and negative allosteric modulators in the calcium-sensing receptor dimer” (Scientific Reports, 2017).
